Test results reported in article PMC6286156 (Cell Calcium, 2018).
Structures can show the parent of a compound that is named as a salt.

Legend:
[1] = system: NAADP-evoked Ca^2+ release; test: Primary screen of NAADP-evoked Ca2+ release in sea urchin egg homogenate; format: biochemical, Strongylocentrotus purpuratus; conditions: for 1° Screen (sea urchin) Ca^2+ release (% NAADP): peak NAADP-evoked Ca2+ release as % of control NAADP response: compound 25 μM, 6 min preincubation, NAADP 167 nM; for Effect on NAADP-evoked Ca2+ signal in primary screen (in words): 25 μM
[2] = system: lysosomal labelling (LysoTracker Red), U2OS cells; test: Counterscreen: LysoTracker Red; format: cell-based, human; conditions: for Counterscreen (human cells) LTR signal (% control): drug 30 μM, minimum LTR F/F0 before GPN; for activity at 30 µM: Homo sapiens, read-out: Counterscreen (human cells) LTR signal (% control)
[3] = system: NAADP-evoked Ca^2+ release; format: biochemical, Strongylocentrotus purpuratus; conditions: for 2° Screen (sea urchin) Ca^2+ release log(IC50): printed as log(IC50), negative values, molar implied, NAADP 70 nM; for IC50: read-out: IC50 for inhibition of NAADP-evoked Ca2+ release
[4] = system: lysosomal Ca^2+ content, U2OS cells; test: Counterscreen: GPN-evoked lysosomal Ca2+ release; format: cell-based, human; conditions: for Counterscreen (human cells) Ca^2+ release (% GPN) / Effect on GPN-mobilizable Ca2+ and LysoTracker (LTR) staining (in words): drug 30 μM; for Counterscreen (human cells) Ca^2+ release (% GPN): GPN 300 μM, peak fluo-4 F/F0; for activity at 30 µM: Homo sapiens, read-out: Counterscreen (human cells) Ca^2+ release (% GPN)
[5] = system: specific ^32P-NAADP binding in sea urchin egg homogenates; test: 32P-NAADP radioligand binding in sea urchin egg homogenate; set-up: species or system Strongylocentrotus purpuratus; conditions: drug 30 μM, specific 32P-NAADP binding relative to vehicle
[6] = system: NAADP-evoked Ca^2+ signals; conditions: cited from earlier work
[7] = system: cADPR-evoked Ca^2+ release; format: biochemical, Strongylocentrotus purpuratus
[8] = system: IP3-evoked Ca^2+ release; format: biochemical, Strongylocentrotus purpuratus
[9] = system: Ebola; conditions: mouse, in vivo; cited from earlier work

Compound | 1° Screen (sea urchin) Ca^2+ release (% NAADP): peak NAADP-evoked Ca2+ release as % of control NAADP response [1] [%] | 2° Screen (sea urchin) Ca^2+ release log(IC50) [3] | 2° Screen (sea urchin) NAADP binding (% inhibition) [5] [%] | activity at 30 µM [2] [%] | activity at 30 µM [4] [%] | further results
Cl.Cl.c1ccc(CCCN2CCN(CCOC(c3ccccc3)c3ccccc3)CC2)cc1 [GBR-12935 dihydrochloride] | 10.7 ± 7.0 | −4.90 ± 0.13 | 3.4 ± 3.3 | – | – | Counterscreen (human cells) LTR signal (% control) [2]: 67.5 ± 11%; Counterscreen (human cells) Ca^2+ release (% GPN) [4]: 61.1 ± 15%
O=C1C[C@@H](c2ccc(O)cc2)Oc2cc(O)cc(O)c21 [naringenin] | – | – | – | – | – | IC50 [6]: ~180 µM
CN1CCC[C@@H]1CCO[C@](C)(c1ccccc1)c1ccc(Cl)cc1 [Clemastine fumarate, clemastine fumarate] | – | – | – | 70.9 ± 15 | 69.5 ± 13 | –
CSc1ccc2c(c1)N(CCC1CCCCN1C)c1ccccc1S2 (stereo not drawn) [Thioridazine hydrochloride, thioridazine hydrochloride] | – | – | – | 26.2 ± 18 | 20.5 ± 12 | –
COc1ccc(CCCOC(Cn2ccnc2)c2ccc(OC)cc2)cc1 (stereo not drawn) [SKF 96,365, SKF 96365 hydrochloride] | 6.3 ± 4.5 | −5.29 ± 0.06 | −5.3 ± 5.7 | 98.5 ± 5 | 98.1 ± 6 | Effect on GPN-mobilizable Ca2+ and LysoTracker (LTR) staining (in words) [4]: no effect
O=C1NC(=O)C(c2ccccc2)(c2ccccc2)N1 [phenytoin] | – | – | – | – | – | Effect on NAADP-evoked Ca2+ signal in primary screen (in words) [1]: potentiation
CCN(CC)CC#CCOC(=O)C(O)(c1ccccc1)C1CCCCC1 (stereo not drawn) [Oxybutynin Chloride, oxybutynin chloride] | – | – | – | 59.2 ± 9 | 62.1 ± 4 | –
Cc1nc(N=Nc2cc(S(=O)(=O)O)c3cc([N+](=O)[O-])cc(S(=O)(=O)O)c3c2)c(COP(=O)(O)O)c(C=O)c1O [PPNDS] | 22 ± 4 | – | – | – | – | –
COc1cc(C(=O)OCCCN2CCCN(CCCOC(=O)c3cc(OC)c(OC)c(OC)c3)CC2)cc(OC)c1OC [Dilazep hydrochloride, dilazep hydrochloride] | 16.0 ± 3.0 | −5.03 ± 0.11 | −10.9 ± 8.1 | 69.6 ± 9 | 65.1 ± 5 | –
OCc1cc(C(O)CNCCCCCCOCCCCc2ccccc2)ccc1O (stereo not drawn) [Salmeterol xinafolate, salmeterol xinafoate] | 18.7 ± 12 | −4.94 ± 0.04 | −2.3 ± 13.6 | 97.3 ± 7 | 97.4 ± 5 | –
COc1ccc([C@H]2N[C@H](C(=O)O)Cc3c2[nH]c2ccccc32)cc1CN1CCN(c2ccccc2F)CC1 (relative stereo) [trans-ned-19, trans-Ned-19] | – | – | – | – | – | IC50 [3]: 156 ± 3 µM
CN1CCN(CCCN2c3ccccc3Sc3ccc(C(F)(F)F)cc32)CC1 [Trifluoperazine dihydrochloride, trifluoperazine dihydrochloride] | 19.7 ± 15 | −5.13 ± 0.10 | −13.7 ± 13.7 | 15.2 ± 9 | 5.8 ± 11 | –
CN1CCN(CCCN2c3ccccc3Sc3ccc(Cl)cc32)CC1 [Prochlorperazine dimaleate, prochlorperazine dimaleate salt] | – | – | – | 24.3 ± 14 | 20.2 ± 17 | –
CCCCCCCCCC(=O)NC(CN1CCOCC1)C(O)c1ccccc1.Cl (stereo not drawn) [PDMP, PDMP hydrochloride] | 18.3 ± 17 | −4.80 ± 0.05 | 6.0 ± 0.5 | – | – | Counterscreen (human cells) LTR signal (% control) [2]: 91.6 ± 13%; Effect on GPN-mobilizable Ca2+ and LysoTracker (LTR) staining (in words) [4]: no effect; Counterscreen (human cells) Ca^2+ release (% GPN) [4]: 91.4 ± 2%
CCN(CC)CCCCCCCCOC(=O)c1cc(OC)c(OC)c(OC)c1.Cl [TMB-8 hydrochloride] | 18.3 ± 3.2 | −5.12 ± 0.06 | −16.6 ± 10.3 | – | – | Counterscreen (human cells) LTR signal (% control) [2]: 71.8 ± 8%; Counterscreen (human cells) Ca^2+ release (% GPN) [4]: 68.8 ± 5%
CC1(C)C(=O)N(CCN2CCC(C(=O)c3ccc(F)cc3)CC2)c2ccccc21.Cl [LY-310,762 hydrochloride] | 16.3 ± 8.7 | −4.75 ± 0.05 | −2.8 ± 3.8 | – | – | Counterscreen (human cells) LTR signal (% control) [2]: 90.2 ± 8%; Counterscreen (human cells) Ca^2+ release (% GPN) [4]: 108.1 ± 11%
ST-148 | 16.7 ± 3.5 | −4.80 ± 0.08 | 0.2 ± 4.3 | – | – | Counterscreen (human cells) LTR signal (% control) [2]: 69.8 ± 13%; Counterscreen (human cells) Ca^2+ release (% GPN) [4]: 66.6 ± 5%
COc1ccc([C@@H]2Sc3ccccc3N(CCN(C)C)C(=O)[C@@H]2OC(C)=O)cc1 [diltiazem] | – | – | – | – | – | Concentration acting as TPC pore blocker [6]: < 10 u M
CO/C1=C\C(C)=C\[C@@H](C)[C@@H](O)[C@@H](C)C/C(C)=C/C=C/[C@H](OC)[C@@H]([C@@H](C)[C@@H](O)[C@H](C)[C@@]2(O)C[C@@H](O)[C@H](C)[C@@H](C(C)C)O2)OC1=O [bafilomycin, bafilomycin A1] | – | – | – | – | – | Effect on GPN-mobilizable Ca2+ and LysoTracker (LTR) staining (in words) [4]: penetrant effects
C/C=C(/C)C(=O)O[C@H]1C(C)=C2[C@H]([C@@H]1OC(=O)CCCCCCC)[C@@](C)(OC(C)=O)C[C@H](OC(=O)CCC)[C@@]1(O)[C@H]2OC(=O)[C@@]1(C)O [thapsigargin] | – | – | – | – | – | Effect on NAADP-evoked Ca2+ signal in primary screen (in words) [1]: did not abrogate NAADP responsiveness
OCCN1CCN(CCCN2c3ccccc3Sc3ccc(C(F)(F)F)cc32)CC1 [Fluphenazine dihydrochloride, fluphenazine dihydrochloride] | – | – | – | 69.8 ± 10 | 67.6 ± 14 | –
Cc1nc(N=Nc2ccc(S(=O)(=O)[O-])cc2S(=O)(=O)[O-])c(COP(=O)([O-])[O-])c(C=O)c1O.[Na+].[Na+].[Na+].[Na+] [PPADS, PPADS tetrasodium salt] | – | −5.27 ± 0.01 | 84.8 ± 1.6 | – | – | Counterscreen (human cells) LTR signal (% control) [2]: 92.1 ± 7%; IC50 [3]: 5.4 ± 0.2 µM; Counterscreen (human cells) Ca^2+ release (% GPN) [4]: 91.3 ± 16%
Cl.Fc1ccc(C(OCCCc2c[nH]cn2)c2ccc(F)cc2)cc1 [IPFME, 3-(1H-Imidazol-4-yl)propyl di(p-fluorophenyl)methyl ether hydrochloride] | 13.7 ± 11 | −5.22 ± 0.08 | 2.9 ± 2.1 | 56.9 ± 8 | 51.3 ± 18 | –
CC(=O)SCC(Cc1ccccc1)C(=O)NCC(=O)OCc1ccccc1 (stereo not drawn) [Racecadotril, racecadotril] | 11.5 ± 6.0 | −5.80 ± 0.03 | −8.3 ± 0.2 | 92.8 ± 3 | 110 ± 4 | IC50 [3]: 1.6 ± 0.1 µM; Effect on GPN-mobilizable Ca2+ and LysoTracker (LTR) staining (in words) [4]: no effect
COc1ccc2cc1Oc1ccc(cc1)C[C@H]1c3cc(c(OC)cc3CCN1C)Oc1c(O)c(OC)cc3c1[C@H](C2)N(C)CC3 [Fangchinoline] | – | – | – | – | – | Effect on size of cADPR-evoked Ca2+ transients (in words) [7]: lesser effects; Effect on size of IP3-evoked Ca2+ transients (in words) [8]: lesser effects; Peak amplitude of NAADP-evoked Ca2+ release, % of control response [3]: 47 ± 2%
CCS(=O)(=O)Nc1cccc(C(=C2CCCCC2)c2cnc[nH]2)c1 [A-315456] | 13.0 ± 5.0 | −4.44 ± 0.01 | 8.4 ± 1.2 | – | – | Counterscreen (human cells) LTR signal (% control) [2]: 95.2 ± 4%; Effect on GPN-mobilizable Ca2+ and LysoTracker (LTR) staining (in words) [4]: no effect; Counterscreen (human cells) Ca^2+ release (% GPN) [4]: 97.1 ± 3%
COc1ccc2cc1Oc1ccc(cc1)C[C@H]1c3cc(c(OC)cc3CCN1C)Oc1c(OC)c(OC)cc3c1[C@H](C2)N(C)CC3 [tetrandrine] | – | – | – | – | – | Concentration range acting as TPC pore blocker (in words) [6]: sub-micromolar range; Survival [9]: improved survival
COC(=O)C1=C(C)NC(C)=C(C(=O)OC)C1c1ccccc1[N+](=O)[O-] [nifedipine] | – | – | – | – | – | Concentration acting as TPC pore blocker [6]: < 10 u M
